# Entries after “also recorded” stand apart in the source; their conditions may differ.
# Legend:
# Format in all cases: cell-based, human
# p51 promoter [1] = experiment: Luciferase reporter assay in HCT116 cells transiently transfected with pGL2-neo/p51 promoter; settings: HCT116, 1 μg/ml trichostatin A vs 0, 24 hours
# Method: Subsequently, the following experiment was carried out in order to perform functional analysis of the p51 promoter region. 200,000 cells of HCT116 were plated on a culture dish with a diameter of 60 mm. The medium used was McCOY's 5A/10% FBS. These were cultured in the presence of 5% carbon dioxide at 37° C. for 48 hours. The medium was replaced with McCOY's 5A containing no serum. Subsequently, 2 μg each of pGL2-neo/p51 promoter or pGL2-neo vector was introduced. The plasmid was introduced using the lipofectamine plus reagent (manufactured by GIBCO BRL). Thus, 125 μl of McCOY's 5A and 8 μl of the plus solution were added to the plasmid solution, stirred well, and then incubated at room temperature for 15 minutes. To this solution, 125 μl of McCOY's 5A and 12 μl of lipofectamine solution were added, stirred well, and then incubated at room temperature for further 15 minutes. This was added to the HCT116 cells incubated by the above procedure, gently mixed, and cultured in the presence of 5% carbon dioxide at 37° C. for three hours to introduce plasmid. Subsequently, the medium was replaced with McCOY's 5A/10% FBS, and cultured in the presence of 5% carbon dioxide at 37° C. for 21 hours. […] For these cells, the luciferase activity was determined to investigate promoter activity. […] The luciferase activity was determined according to the following method. […]
# p51A mRNA = experiment: Northern blotting of the amount of p51 expressed in HCT116 cells after stimulation with drugs; settings: 24 hours treatment, 1 μg/ml trichostatin A, Northern blotting of 20 μg RNA
# Method: A variety of stimulations including stimulation with a drug were applied to a cell line HCT116 derived from colon cancer to investigate changes in the amount expressed of p51 by Northern blotting. 200,000 cells of HCT116 cells were plated on a culture dish with a diameter of 60 mm, and cultured in the presence of 5% carbon dioxide at 37° C. for two days. The medium used was McCOY's 5A (manufactured by Nisseiken) to which fetal bovine serum (FBS) was added to a final concentration of 10% (referred to hereinafter as McCOY's 5A/10% FBS). Then it was treated with A23187 (0.1 μM, 1 μM), cisplatin (1 μg/ml, 10 μg/ml), CPTcAMP (0.1 μM, 1 μM), etoposide (10 μg/ml, 0.1 μg/ml), genistein (1 μM, 10 μM), ML-236B (1 μg/ml, 10 μg/ml), milurinone (1 μM, 10 μM), mitomycin C (5 μg/ml, 50 μg/ml), NKH477 (0.1 μM, 1 μM), okadaic acid (1 nM, 10 nM), radicicol (0.1 μg/ml, 1 μg/ml), staurosporin (1 nM, 10 nM), taxol (1 μg/ml, 10 μg/ml), trichostatin A (0.1 μg/ml, 1 μg/ml), radiation (50 J/m^2, 100 J/m^2), vitamin D3 (10 nM, 100 nM), vincristine (1 μg/ml, 10 μg/ml), and wortmannin (0.1 μM, […]), and further cultured in the presence of 5% carbon dioxide at 37° C. for 24 hours. Then, from the cells, RNA was prepared using ISOGEN (manufactured by Nippongene). […] Then, the membrane was analyzed on autoradiography.
# p51 promoter [2] = experiment: Luciferase assay in geneticin-selected HCT116/p51 promoter clones
# Method: The medium in the cell culture dish was removed, and 5 ml of the cell lysis reagent (25 mM Tris-HCl, pH 7.8, 2 mM dithiothreitol, 2 mM CDTA, 0.2% triton X-100, 10% glycerol) was added and incubated at room temperature for 15 minutes.
# As the plasmid-introduced cells, the HCT116 cell line was used. 500,000 cells of HCT116 cell were plated on a cuture dish with a diameter of 60 mm. The medium used was McCOY's 5A/10% FBS. These were cultured in the presence of 5% carbon dioxide at 37° C. for 48 hours. The medium was replaced with McCOY's 5A containing no serum. As the plasmid for introduction, two μg of pGL2-neo/p51 promoter was dissolved in 4 μl of the TE solution to prepare a plasmid solution. The plasmid was introduced using the lipofectamine plus reagent (manufactured by GIBCO BRL). Thus, 125 μl of McCOY's 5A and 8 μl of the plus solution were added to the plasmid solution, stirred well, and then incubated at room temperature for 15 minutes. To this solution, 125 μl of McCOY's 5A and 12 μl of the lipofectamine solution were added, stirred well, and then incubated at room temperature for further 15 minutes. This was added to the HCT116 cells cultured by the above procedure, gently mixed, and incubated in the presence of 5% carbon dioxide at 37° C. for three hours to permit the introduction of the plasmid. Subsequently, the medium was replaced with McCOY's 5A/10% FBS, and incubated in the presence of 5% carbon dioxide at 37° C. for 21 hours. Then, the cells were recovered from the culture dish with PBS containing 0.25% trypsin and 0.02% EDTA, and 1% amount thereof was plated onto a culture dish with a diameter of 100 mm. It was further cultured in McCOY's 5A/10% FBS medium in the presence of 5% carbon dioxide at 37° C. for further 72 hours, and then 1.2 mg/ml of geneticin (manufactured by Nacalai Tesque) was added as a selection drug. By replacing the medium every three days, and further culturing in the above condition for further two weeks, the cells into whose genes the plasmid gene was introduced, and became geneticin-resistant, were selected. Subsequently, 50 clones were isolated from the cell group that formed colonies on the dish, and were plated on a 24-well culture dish to continue being cultured.
# Thus, the reactivity of these clones to trichostatin A was investigated by the following procedure. 500,000 cells each of the cloned cells were plated on a cuture dish with a diameter of 60 mm. The medium used was McCOY's 5A/10% FBS. These were cultured in the presence of 5% carbon dioxide at 37° C. for 48 hours. Then, trichostatin A was added to the two groups of cells to a final concentration of 0 or 0.1 μg/ml, and cultured in the presence of 5% carbon dioxide at 37° C. for 24 hours. For these cells, their luciferase activity was determined to examine the effect on the p51 promoter activity. The luciferase activity was determined according to the above method.
compound,measurement,setting,value
CC(/C=C/C(=O)NO)=C\[C@@H](C)C(=O)c1ccc(N(C)C)cc1 [trichostatin A],luciferase activity (fluorescence/chemiluminescence intensity) of pGL2-neo/p51 promoter-introduced cells,p51 promoter [1],further remarkably enhanced; also recorded: markedly enhanced
same,amount of p51A mRNA (specific band that reacts with p51A-derived cDNA),p51A mRNA,transactivates p51; also recorded: specific band that reacts with p51A-derived cDNA was only observed
same,"measured values of luciferase activity, clone #5","p51 promoter [2]; HCT116/p51 promoter clone #5, with TsA 0.1 μg/ml, 24 hours (without TsA 3.9)",29.5
same,"measured values of luciferase activity, clone #9","p51 promoter [2]; HCT116/p51 promoter clone #9, with TsA 0.1 μg/ml, 24 hours (without TsA 1.0)",33.3
same,"measured values of luciferase activity, clone #17","p51 promoter [2]; HCT116/p51 promoter clone #17, with TsA 0.1 μg/ml, 24 hours (without TsA 17.0)",44.1
same,"measured values of luciferase activity, clone #18","p51 promoter [2]; HCT116/p51 promoter clone #18, with TsA 0.1 μg/ml, 24 hours (without TsA 6.8)",14.0
same,luciferase activity of cloned cells,"p51 promoter [2]; several clones, 0.1 μg/ml trichostatin A, 24 hours",significantly enhanced luciferase activity
